Assay results as given in ChEMBL document CHEMBL4823257, “Penitol A and Penicitols E-I: Citrinin Derivatives from Penicillium citrinum and the Structure Revision of Previously Proposed Analogues” (J Nat Prod, 2021).
In brackets after ≈: the same amount, converted by molar mass.

Columns and labels:
Escherichia coli = assay: Antibacterial activity against Escherichia coli ATCC 25922; type: functional
MDA-MB-231 = assay: Cytotoxicity against human MDA-MB-231 cells by SRB assay; type: functional, cell-based
HCT-116 = assay: Cytotoxicity against human HCT-116 cells by SRB assay; type: functional, cell-based
Pseudomonas aeruginosa = assay: Antibacterial activity against Pseudomonas aeruginosa 14; type: functional
MCF7 = assay: Cytotoxicity against human MCF7 cells by SRB assay; type: functional, cell-based
L02 = assay: Cytotoxicity against human L02 cells by SRB assay; type: functional, cell-based
HL-60 = assay: Cytotoxicity against human HL-60 cells by MTT assay; type: functional, cell-based
Bacillus subtilis = assay: Antibacterial activity against Bacillus subtilis ATCC 6051; type: functional
Bel-7402 = assay: Cytotoxicity against human Bel-7402 cells by SRB assay; type: functional, cell-based
A549 = assay: Cytotoxicity against human A549 cells by SRB assay; type: functional, cell-based
Enterococcus faecalis = assay: Antibacterial activity against Vancomycin resistant Enterococcus faecalis 1010798; type: functional
K562 = assay: Cytotoxicity against human K562 cells by MTT assay; type: functional, cell-based
Staphylococcus aureus = assay: Antibacterial activity against Staphylococcus aureus ATCC 29213; type: functional
Klebsiella pneumoniae = assay: Antibacterial activity against Klebsiella pneumoniae WNX-1; type: functional

With `Cc1c(O)cc(O)c2c1[C@H](C)[C@@H](C)OC21CCCCC1` the MIC (Escherichia coli) was > 64 µg/mL, the IC50 (MDA-MB-231) was 26 µM and the IC50 (HCT-116) was 24 µM. The MIC (Pseudomonas aeruginosa) was > 64 µg/mL, the IC50 (MCF7) was 15 µM and the IC50 (L02) was > 30 µM. The IC50 (HL-60) was 20 µM, the MIC (Bacillus subtilis) was 32 µg/mL (≈ 116 µM) and the IC50 (Bel-7402) was 12 µM. The IC50 (A549) was 28 µM, the MIC (Enterococcus faecalis) was 32 µg/mL (≈ 116 µM) and the IC50 (K562) was 8.8 µM. For the same compound, the MIC (Staphylococcus aureus) was 16 µg/mL (≈ 57.9 µM) and the MIC (Klebsiella pneumoniae) was > 64 µg/mL.
For `CO[C@]12CCCC[C@@H]1[C@H]1O[C@H](C)[C@@H](C)c3c(C)c(O)cc(c31)O2`, the MIC (Escherichia coli) was > 64 µg/mL, the IC50 (MDA-MB-231) was > 30 µM and the IC50 (HCT-116) was > 30 µM. For the same compound, the MIC (Pseudomonas aeruginosa) was > 64 µg/mL, the IC50 (MCF7) was > 30 µM and the IC50 (L02) was > 30 µM. For the same compound, the IC50 (HL-60) was > 30 µM, the MIC (Bacillus subtilis) was > 64 µg/mL and the IC50 (Bel-7402) was 17 µM. The IC50 (A549) was 19 µM, the MIC (Enterococcus faecalis) was > 64 µg/mL and the IC50 (K562) was > 30 µM. For the same compound, the MIC (Staphylococcus aureus) was > 64 µg/mL and the MIC (Klebsiella pneumoniae) was > 64 µg/mL.
COLISTIN showed an MIC (Escherichia coli) of 0.5 µg/mL, an MIC (Pseudomonas aeruginosa) of 0.3 µg/mL and an MIC (Klebsiella pneumoniae) of 0.5 µg/mL.
In the case of `Cc1c(O)cc2c3c1[C@H](C)[C@@H](C)O[C@H]3[C@@H]1CCCC[C@@]1(O)O2`, the MIC (Escherichia coli) is reported as > 64 µg/mL, the IC50 (MDA-MB-231) is reported as > 30 µM and the IC50 (HCT-116) is reported as > 30 µM. The MIC (Pseudomonas aeruginosa) was > 64 µg/mL, the IC50 (MCF7) was > 30 µM and the IC50 (L02) was > 30 µM. The IC50 (HL-60) was > 30 µM, the MIC (Bacillus subtilis) was > 64 µg/mL and the IC50 (Bel-7402) was > 30 µM. For the same compound, the IC50 (A549) was > 30 µM, the MIC (Enterococcus faecalis) was > 64 µg/mL and the IC50 (K562) was > 30 µM. For the same compound, the MIC (Staphylococcus aureus) was > 64 µg/mL and the MIC (Klebsiella pneumoniae) was > 64 µg/mL.
For `COc1cccc2c1C(=O)c1c(O)c3c(c(O)c1C2=O)C[C@@](O)(C(=O)CO)C[C@@H]3O[C@H]1C[C@H](N)[C@H](O)[C@H](C)O1` [DOXORUBICIN], the IC50 (MDA-MB-231) was < 1 µM, the IC50 (HCT-116) was < 1 µM and the IC50 (MCF7) was < 1 µM. The IC50 (L02) was < 1 µM, the IC50 (HL-60) was < 1 µM and the IC50 (Bel-7402) was < 1 µM. For the same compound, the IC50 (A549) was < 1 µM and the IC50 (K562) was < 1 µM.
With `Cc1c(O)cc2c3c1[C@H](C)[C@@H](C)O[C@@H]3[C@@H]1CCCC[C@]1(O)O2` the MIC (Escherichia coli) was > 64 µg/mL, the IC50 (MDA-MB-231) was > 30 µM and the IC50 (HCT-116) was > 30 µM. The MIC (Pseudomonas aeruginosa) was > 64 µg/mL, the IC50 (MCF7) was > 30 µM and the IC50 (L02) was > 30 µM. For the same compound, the IC50 (HL-60) was > 30 µM, the MIC (Bacillus subtilis) was > 64 µg/mL and the IC50 (Bel-7402) was > 30 µM. The IC50 (A549) was > 30 µM, the MIC (Enterococcus faecalis) was > 64 µg/mL and the IC50 (K562) was > 30 µM. The MIC (Staphylococcus aureus) was > 64 µg/mL and the MIC (Klebsiella pneumoniae) was > 64 µg/mL.
For `C/C=C/[C@@H]1C=C[C@@H]2C[C@H](C)CC[C@H]2[C@]1(C)/C(O)=C1/C(=O)[C@H](CO)N(C)C1=O`, the MIC (Bacillus subtilis) was 1 µg/mL (≈ 2.68 µM), the MIC (Enterococcus faecalis) was 2 µg/mL (≈ 5.35 µM) and the MIC (Staphylococcus aureus) was 2 µg/mL (≈ 5.35 µM).
`CO[C@@]12CCCC[C@H]1[C@@H]1O[C@H](C)[C@@H](C)c3c(C)c(O)cc(c31)O2` was tested, and the MIC (Escherichia coli) was > 64 µg/mL, the IC50 (MDA-MB-231) was > 30 µM and the IC50 (HCT-116) was > 30 µM. For the same compound, the MIC (Pseudomonas aeruginosa) was > 64 µg/mL, the IC50 (MCF7) was > 30 µM and the IC50 (L02) was > 30 µM. For the same compound, the IC50 (HL-60) was > 30 µM, the MIC (Bacillus subtilis) was 32 µg/mL (≈ 100 µM) and the IC50 (Bel-7402) was > 30 µM. For the same compound, the IC50 (A549) was > 30 µM, the MIC (Enterococcus faecalis) was 32 µg/mL (≈ 100 µM) and the IC50 (K562) was 26 µM. For the same compound, the MIC (Staphylococcus aureus) was 64 µg/mL (≈ 201 µM) and the MIC (Klebsiella pneumoniae) was > 64 µg/mL.
In the case of `Cc1c(O)cc2c3c1[C@H](C)[C@@H](C)O[C@@H]3[C@H]1CCCC[C@]1(O)O2`, the MIC (Escherichia coli) is reported as > 64 µg/mL, the IC50 (MDA-MB-231) is reported as > 30 µM and the IC50 (HCT-116) is reported as > 30 µM. The MIC (Pseudomonas aeruginosa) was > 64 µg/mL, the IC50 (MCF7) was > 30 µM and the IC50 (L02) was > 30 µM. For the same compound, the IC50 (HL-60) was > 30 µM, the MIC (Bacillus subtilis) was > 64 µg/mL and the IC50 (Bel-7402) was > 30 µM. For the same compound, the IC50 (A549) was > 30 µM, the MIC (Enterococcus faecalis) was > 64 µg/mL and the IC50 (K562) was > 30 µM. For the same compound, the MIC (Staphylococcus aureus) was > 64 µg/mL and the MIC (Klebsiella pneumoniae) was > 64 µg/mL.
For `Cc1c(O)cc2c3c1[C@H](C)[C@@H](C)O[C@H]3[C@H]1CCCC[C@@]1(O)O2`, the MIC (Escherichia coli) was > 64 µg/mL, the IC50 (MDA-MB-231) was > 30 µM and the MIC (Pseudomonas aeruginosa) was > 64 µg/mL. The IC50 (L02) was > 30 µM, the MIC (Bacillus subtilis) was > 64 µg/mL and the MIC (Enterococcus faecalis) was > 64 µg/mL. For the same compound, the IC50 (K562) was > 30 µM, the MIC (Staphylococcus aureus) was > 64 µg/mL and the MIC (Klebsiella pneumoniae) was > 64 µg/mL.
